Source: patent publication US20230348424A1, “HETEROCYCLIC COMPOUNDS AND METHODS OF USE” (Schrödinger, Inc., priority 2022, published 2023)

Target: SOS1:KRAS (G12C) interaction (Homo sapiens (Human), UniProt Q07889)
Assay: SOS1 KRas(G12C) FRET Assay
Format: binding
Conditions: 0.5 nM His10-SOS1 (res. 564-1049), 2.5 nM GST-KRAS G12C (res. 1-169), 2 hrs at RT
Method: Inhibition of the SOS 1:KRAS interaction was measured using purified GST-tagged KRAS (res. 1-169, G12C, purified based on Hillig, et al., Proc Natl Acad Sci USA (2019); 116(7):2551-2560) and recombinant His10-SOS1 (res. 564-1049; purified based on Hillig, et al.). The final assay was performed at 20 uL with 0.5 nM SOS1 protein and 2.5 nM KRAS protein in a buffer of PBS, 0.1% BSA, 5 mM MgCh, 0.0025% Igepal, 100 mM KF, 5 mM DTT in a white 384 square well OptiPlate (PerkinElmer, Cat. 6007290). A 2x KRAS working solution was prepared in an assay buffer containing 5 nM GST-KRAS G12C and 2 nM anti-GST-Eu(K) (Cisbio, Cat. 61GSTKLA) and pre-incubated for 15 minutes at 25° C. […] The final DMSO concentration is 0.5%. Plates were incubated at RT for 2 hrs before the FRET signal was measured using Envision at emission 665 nm and 615 nm. FRET signal was converted to percentage of protein-protein interaction using the following equation:
• C: signal with compound treatment • P: signal for positive control (DMSO) • N: signal for negative control (no SOS1 added)
IC50 and Hill coefficients were obtained using Graph Pad Prism (Graph Pad software, Inc, USA) with non-linear regression analysis.

SOS1:KRAS (G12C) interaction, sequence (Q07889 564-1049, stated change not applied): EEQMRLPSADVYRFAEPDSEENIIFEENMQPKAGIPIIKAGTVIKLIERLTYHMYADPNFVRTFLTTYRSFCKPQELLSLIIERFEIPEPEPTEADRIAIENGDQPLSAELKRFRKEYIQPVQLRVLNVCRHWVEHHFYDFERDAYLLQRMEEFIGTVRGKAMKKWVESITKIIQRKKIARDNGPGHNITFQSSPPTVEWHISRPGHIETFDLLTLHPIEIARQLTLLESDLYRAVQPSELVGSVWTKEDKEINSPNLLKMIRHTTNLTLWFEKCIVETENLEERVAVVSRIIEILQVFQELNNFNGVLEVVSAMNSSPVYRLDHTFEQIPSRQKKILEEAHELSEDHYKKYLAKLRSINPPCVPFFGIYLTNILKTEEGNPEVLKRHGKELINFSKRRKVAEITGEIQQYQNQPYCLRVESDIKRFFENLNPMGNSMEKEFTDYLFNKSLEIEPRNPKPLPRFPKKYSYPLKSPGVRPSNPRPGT

Row | SMILES | IC50 [µM]
1 | C[C@@H](NC(=O)c1cn(C2CCC2)c(=O)cc1N[C@H]1[C@@H]2CC[C@H]1CN(C)C2)c1cccc(C(F)F)c1F (single isomer, unassigned) [Example 214] | 0.0106
2 | C[C@@H](NC(=O)c1cn(C2CCC2)c(=O)cc1N[C@@H]1[C@@H]2CC[C@H]1CN(C)C2)c1cccc(C(F)F)c1F (single isomer, unassigned) [Example 215] | 0.0682
3 | C[C@@H](NC(=O)c1cn([C@@H]2CC23CC3)c(=O)cc1N[C@H]1[C@@H]2CN(C)C[C@@H]21)c1cccc(C(F)(F)F)c1F (single isomer, unassigned) [Example 218] | 0.0158
4 | C[C@@H](NC(=O)c1cn([C@H]2CC23CC3)c(=O)cc1N[C@H]1[C@@H]2CN(C)C[C@@H]21)c1cccc(C(F)(F)F)c1F (single isomer, unassigned) [Example 219] | 0.0269
5 | C[C@@H](NC(=O)c1cn([C@@]2(C(F)(F)F)CCOC2)c(=O)cc1N[C@H]1[C@@H]2CN(C)C[C@@H]21)c1cccc(C(F)F)c1F (single isomer, unassigned) [Example 234] | 0.0092
6 | C[C@@H](NC(=O)c1cn([C@]2(C(F)(F)F)CCOC2)c(=O)cc1N[C@H]1[C@@H]2CN(C)C[C@@H]21)c1cccc(C(F)F)c1F (single isomer, unassigned) [Example 235] | 0.142
7 | C[C@@H](NC(=O)c1cn(C2(C(F)F)CC2)c(=O)cc1N[C@H]1C[C@H]2C[C@@H]1CN2C)c1cccc(C(F)F)c1F (single isomer, unassigned) [Example 236] | 0.0453
8 | C[C@@H](NC(=O)c1cn(C2(C(F)F)CC2)c(=O)cc1N[C@H]1C[C@@H]2C[C@H]1CN2C)c1cccc(C(F)F)c1F (single isomer, unassigned) [Example 237] | 0.0194
9 | C[C@@H](NC(=O)c1cn(C2(C(F)F)CC2)c(=O)cc1N[C@@H]1C[C@@H]2C[C@H]1CN2C)c1cccc(C(F)F)c1F (single isomer, unassigned) [Example 238] | 0.0293
10 | C[C@@H](NC(=O)c1cn(C2(C(F)F)CC2)c(=O)cc1N[C@@H]1C[C@H]2C[C@@H]1CN2C)c1cccc(C(F)F)c1F (single isomer, unassigned) [Example 239] | 0.0215
11 | C[C@@H](NC(=O)c1cn(C2(C(F)F)CC2)c(=O)cc1N[C@H]1[C@@H]2CC[C@H]1CN(C)C2)c1cccc(C(F)F)c1F (single isomer, unassigned) [Example 245] | 0.0442
12 | C[C@@H](NC(=O)c1cn(C2(C(F)F)CC2)c(=O)cc1N[C@@H]1[C@@H]2CC[C@H]1CN(C)C2)c1cccc(C(F)F)c1F (single isomer, unassigned) [Example 246] | 0.0161
13 | C[C@@H](NC(=O)c1cn([C@H]2C[C@@H](C3CC3)C2)c(=O)cc1N[C@H]1[C@@H]2CN(C)C[C@@H]21)c1cccc(C(F)F)c1F (single isomer, unassigned) [Example 248] | 0.0241
14 | C[C@@H](NC(=O)c1cn([C@H]2C[C@H](C3CC3)C2)c(=O)cc1N[C@H]1[C@@H]2CN(C)C[C@@H]21)c1cccc(C(F)F)c1F (single isomer, unassigned) [Example 249] | 0.0165
15 | C[C@@H](NC(=O)c1cn(C2(C(F)F)CC2)c(=O)cc1N[C@@H]1[C@@H]2C[C@H]1CN(C)C2)c1cccc(C(F)F)c1F (single isomer, unassigned) [Example 250] | 0.0217
16 | C[C@@H](NC(=O)c1cn(C2(C(F)F)CC2)c(=O)cc1N[C@H]1[C@@H]2C[C@H]1CN(C)C2)c1cccc(C(F)F)c1F (single isomer, unassigned) [Example 251] | 0.0341
17 | C[C@@H](NC(=O)c1cn(C2(C(F)F)CCC2)c(=O)cc1N[C@@H]1[C@@H]2C[C@H]1CN(C)C2)c1cccc(C(F)F)c1F (single isomer, unassigned) [Example 252] | 0.017
18 | C[C@@H](NC(=O)c1cn(C2(C(F)F)CCC2)c(=O)cc1N[C@H]1[C@@H]2C[C@H]1CN(C)C2)c1cccc(C(F)F)c1F (single isomer, unassigned) [Example 253] | 0.0431
19 | C[C@@H](NC(=O)c1cn([C@@H]2CC23CC3)c(=O)cc1N[C@H]1[C@@H]2CN(C)C[C@@H]21)c1cccc(C(C)(F)F)c1F (single isomer, unassigned) [Example 254] | 0.013
20 | C[C@@H](NC(=O)c1cn([C@H]2CC23CC3)c(=O)cc1N[C@H]1[C@@H]2CN(C)C[C@@H]21)c1cccc(C(C)(F)F)c1F (single isomer, unassigned) [Example 255] | 0.027
21 | C[C@@H](NC(=O)c1cn([C@@H]2CCC2(F)F)c(=O)cc1N[C@H]1[C@@H]2CN(C)C[C@@H]21)c1cccc(C(F)(F)F)c1 (single isomer, unassigned) [Example 256] | 0.0139

Row | SMILES | IC50 [µM]
22 | C[C@@H](NC(=O)c1cn([C@H]2CCC2(F)F)c(=O)cc1N[C@H]1[C@@H]2CN(C)C[C@@H]21)c1cccc(C(F)(F)F)c1 (single isomer, unassigned) [Example 257] | 0.0858
23 | C[C@@H](NC(=O)c1cn(C2CC(F)(F)C2)c(=O)cc1N[C@H]1[C@@H]2CC[C@H]1CN(C)C2)c1cccc(C(F)F)c1F (single isomer, unassigned) [Example 258] | 0.0763
24 | C[C@@H](NC(=O)c1cn(C2CC(F)(F)C2)c(=O)cc1N[C@@H]1[C@@H]2CC[C@H]1CN(C)C2)c1cccc(C(F)F)c1F (single isomer, unassigned) [Example 259] | 0.0104
25 | C[C@@H](NC(=O)c1cn(C2(CF)CC2)c(=O)cc1N[C@H]1[C@@H]2CC[C@H]1CN(C)C2)c1cccc(C(F)F)c1F (single isomer, unassigned) [Example 260] | 0.0124
26 | C[C@@H](NC(=O)c1cn(C2(CF)CC2)c(=O)cc1N[C@@H]1[C@@H]2CC[C@H]1CN(C)C2)c1cccc(C(F)F)c1F (single isomer, unassigned) [Example 261] | 0.0414
27 | CC(=O)N1CC[C@](C)(n2cc(C(=O)N[C@H](C)c3cccc(C(F)F)c3F)c(NC3CCN(C)CC3)cc2=O)C1 (single isomer, unassigned) [Example 265] | 0.0278
28 | CC(=O)N1CC[C@@](C)(n2cc(C(=O)N[C@H](C)c3cccc(C(F)F)c3F)c(NC3CCN(C)CC3)cc2=O)C1 (single isomer, unassigned) [Example 266] | 0.0014
29 | C[C@@H](NC(=O)c1cn([C@H]2C[C@@H]2C)c(=O)cc1N[C@H]1[C@@H]2CN(C)C[C@@H]21)c1cccc(C(F)F)c1F (single isomer, unassigned) [Example 271] | 0.0369
30 | C[C@@H]1C[C@H]1n1cc(C(=O)N[C@H](C)c2cccc(C(F)F)c2F)c(N[C@H]2[C@@H]3CN(C)C[C@@H]32)cc1=O (single isomer, unassigned) [Example 272] | 0.0291
31 | C[C@@H]1C[C@@H]1n1cc(C(=O)N[C@H](C)c2cccc(C(F)F)c2F)c(N[C@H]2[C@@H]3CN(C)C[C@@H]32)cc1=O (single isomer, unassigned) [Example 273] | 0.0157
32 | C[C@@H](NC(=O)c1cn([C@@H]2C[C@@H]2C)c(=O)cc1N[C@H]1[C@@H]2CN(C)C[C@@H]21)c1cccc(C(F)F)c1F (single isomer, unassigned) [Example 274] | 0.0106
33 | CN1C[C@@H]2[C@H](C1)[C@H]2Nc1cc(=O)n(C2(C(F)F)CC2)cc1C(=O)N[C@@H](c1cccc(C(F)F)c1F)C(F)(F)F (single isomer, unassigned) [Example 275] | 0.361
34 | CN1C[C@@H]2[C@H](C1)[C@H]2Nc1cc(=O)n(C2(C(F)F)CC2)cc1C(=O)N[C@H](c1cccc(C(F)F)c1F)C(F)(F)F (single isomer, unassigned) [Example 276] | > 10
35 | C[C@@H](NC(=O)c1cn(C2(C(F)F)CC2)c(=O)cc1N[C@H]1CCNC2(CC2)C1)c1cccc(C(F)F)c1F (single isomer, unassigned) [Example 277] | 0.00946
36 | C[C@@H](NC(=O)c1cn(C2(C(F)F)CC2)c(=O)cc1N[C@@H]1CCNC2(CC2)C1)c1cccc(C(F)F)c1F (single isomer, unassigned) [Example 278] | 0.0241
37 | C[C@@H](NC(=O)c1cn(C2(C(F)F)CC2)c(=O)cc1N[C@H]1[C@@H]2CC[C@H]1CNC2)c1cccc(C(F)F)c1F (single isomer, unassigned) [Example 280] | 0.0158
38 | C[C@@H](NC(=O)c1cn(C2(C(F)F)CC2)c(=O)cc1N[C@@H]1[C@@H]2CC[C@H]1CNC2)c1cccc(C(F)F)c1F (single isomer, unassigned) [Example 281] | 0.0184
39 | Cc1c([C@@H](C)NC(=O)c2cn(C3CCOCC3)c(=O)cc2N[C@H]2CC[C@@]23CCCN(C)C3)cccc1C(F)(F)F (single isomer, unassigned) [Example 296] | 0.252
40 | Cc1c([C@@H](C)NC(=O)c2cn(C3CCOCC3)c(=O)cc2N[C@@H]2CC[C@]23CCCN(C)C3)cccc1C(F)(F)F (single isomer, unassigned) [Example 297] | 0.0334
41 | Cc1c([C@@H](C)NC(=O)c2cn(C3CCOCC3)c(=O)cc2N[C@H]2CC[C@]23CCCN(C)C3)cccc1C(F)(F)F (single isomer, unassigned) [Example 298] | 0.0881
42 | Cc1c([C@@H](C)NC(=O)c2cn(C3CCOCC3)c(=O)cc2N[C@@H]2CC[C@@]23CCCN(C)C3)cccc1C(F)(F)F (single isomer, unassigned) [Example 299] | 0.0513
